Source: US20140308357A1, “MELATONIN-BASED SOLUTIONS AND POWDERS FOR THEIR PREPARATION” (Eratech S.R.L., priority 2011, published 2014)
Converted amounts (≈) assume the structure as drawn.

Columns and labels:
[1] = Solubility of the powder for reconstitution (saturated solution, filtered, HPLC); assay type: physicochemical; conditions: thermodynamic from solid
Description: Following the preparation of a saturate solution of the powders obtained, the same solution was filtered with a […] membrane and the filtered solution obtained was analysed by HPLC according to the method described previously.

[2] = Dissolution speed of the powder for reconstitution in water/PEG-400 (80/20); assay type: physicochemical; conditions: 25° C.
Description: The entire test was conducted in temperature conditions of 25° C.
After 1 minute of manual stirring the two solutions were left to settle for 1 minute.
After 1 minute of sedimentation, the supernatant solution was sampled by taking 1 ml of it and analysing it according to the HPLC method described previously.

[3] = Osmolality and pH of solutions for administration in Water/PEG 400; assay type: physicochemical
[4] = cited from earlier work
[5] = Water/PEG 400 ratio 70/30, melatonin 18 mg/ml
[6] = Water/PEG 400 ratio 75/25, melatonin 14 mg/ml
[7] = Water/PEG 400 ratio 80/20, melatonin 10 mg/ml
[8] = Water/PEG 400 ratio 85/15, melatonin 7 mg/ml
[9] = Water/PEG 400 ratio 90/10, melatonin 5 mg/ml

Compound `COc1ccc2[nH]cc(CCNC(C)=O)c2c1` [Melatonin raw material, Melatonin] has a solubility ([1]; purified water, water, Water (Table 3a)) of 1.8 mg/mL (≈ 7.75 mM), a solubility ([1]; purified water, water, Water (Table 3b)) of 1.7 mg/mL (≈ 7.32 mM) and a solubility ([1]; water/PEG-200 (75/25), aqueous with cosolvent or surfactant or cyclodextrin, Water-PEG 75/25, PEG 200) of 10.5 mg/mL (≈ 45.2 mM). The solubility ([1]; water/PEG-350 (75/25), aqueous with cosolvent or surfactant or cyclodextrin, Water-PEG 75/25, PEG 350) was 16.9 mg/mL (≈ 72.8 mM), the solubility ([1]; water/PEG-400 (75/25), aqueous with cosolvent or surfactant or cyclodextrin, Water-PEG 75/25, PEG 400) was 14.5 mg/mL (≈ 62.4 mM) and the solubility ([1]; water/PEG-400 (80/20), aqueous with cosolvent or surfactant or cyclodextrin, Water-PEG-400 ratio 80-20) was 11.1 mg/mL. The solubility ([1]; water/PEG-400 (90/10), aqueous with cosolvent or surfactant or cyclodextrin, Water-PEG-400 ratio 90-10) was 5 mg/mL, the solubility ([1]; water/ethanol (70/30), aqueous with cosolvent or surfactant or cyclodextrin, Water-Ethanol ratio 70-30) was 19.7 mg/mL and the solubility ([1]; water/ethanol (75/25), aqueous with cosolvent or surfactant or cyclodextrin, Water-Ethanol ratio 75-25) was 14.2 mg/mL. For the same compound, the solubility ([1]; water/ethanol (80/20), aqueous with cosolvent or surfactant or cyclodextrin, Water-Ethanol ratio 80-20) was 8.2 mg/mL, the solubility ([1]; water/ethanol (90/10), aqueous with cosolvent or surfactant or cyclodextrin, Water-Ethanol ratio 90-10) was 3.7 mg/mL and the “Visual inspection of the preparation” value ([2]; 30 mg melatonin in 3 ml water/PEG-400 (80/20), 1 minute manual stirring, after 1 minute settling) was “presence of undissolved particulate”. For the same compound, the “Concentration of melatonin in the supernatant solution” value ([2]; 30 mg melatonin in 3 ml water/PEG-400 (80/20), 1 minute stirring and 1 minute sedimentation) was 7100 µg/mL, the “Concentration of melatonin in solution” value ([2]; water/PEG-400 (80/20), after 10 minutes of stirring) was 7900 µg/mL and the Osmolality [3, 5] was 1310 mOsm/Kg. For the same compound, the pH [3, 5] was 5.2, the Osmolality [3, 6] was 1014 mOsm/Kg and the pH [3, 6] was 5.2. It also gave an Osmolality [3, 7] of 754 mOsm/Kg, a pH [3, 7] of 5.2 and an Osmolality [3, 8] of 530 mOsm/Kg. The pH [3, 8] was 5.2, the Osmolality [3, 9] was 335 mOsm/Kg and the pH [3, 9] was 5.2. For the same compound, the “Concentration of melatonin in plasma” value ([4]; endogenous, circulates bound to albumin) was 0.01 to 0.3 ng/mL, the Bioavailability ([4]; in vivo) was “approximately 15%” and the “Clearance following first passage through the liver” value ([4]; in vivo) was 90%. The Half-life ([4]; in vivo) was 30 to 60 min.
